Experimental data: ChEMBL document CHEMBL1143011, “NMR screening applied to the fragment-based generation of inhibitors of creatine kinase exploiting a new interaction proximate to the ATP binding site” (J Med Chem, 2007)

Legend:
[1] = biological target: Creatine kinase M-type (Oryctolagus cuniculus) (UniProt P00563); test: Inhibition of rabbit muscle creatine kinase at 27.5 uM in presence of 400 uM MgATP
[2] = biological target: T1, Creatine kinase M-type (Oryctolagus cuniculus, UniProt P00563); test: Inhibition of rabbit muscle creatine kinase-MgATP complex by pH-stat assay
[3] = biological target: T1, Creatine kinase M-type; test: Inhibition of rabbit muscle creatine kinase by pH-stat assay

T1 sequence (P00563 whole entry): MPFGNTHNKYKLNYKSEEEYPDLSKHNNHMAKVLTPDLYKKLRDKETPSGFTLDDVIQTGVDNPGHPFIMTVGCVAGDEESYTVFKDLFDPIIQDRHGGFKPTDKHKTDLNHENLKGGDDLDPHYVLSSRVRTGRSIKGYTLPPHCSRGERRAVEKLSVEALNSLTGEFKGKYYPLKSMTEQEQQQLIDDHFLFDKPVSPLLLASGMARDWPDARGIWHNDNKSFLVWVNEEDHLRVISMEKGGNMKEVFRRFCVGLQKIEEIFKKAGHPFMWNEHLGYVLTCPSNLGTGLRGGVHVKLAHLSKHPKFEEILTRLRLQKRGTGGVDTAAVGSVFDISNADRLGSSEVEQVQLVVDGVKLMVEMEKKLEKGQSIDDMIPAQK
Chain of Creatine kinase M-type (Oryctolagus cuniculus) (P00563 whole entry): as above

For `O=C(Nc1ccc(C(=O)c2ccccc2)cc1)c1ccc(-c2ccc(C(=O)O)o2)cc1`, the inhibition [1] was 35%, the Ki [2] was 70 µM and the IC50 [3] was 50 µM. It also gave a Ki [3] of 25 µM.

Compound `O=C(NCc1ccccc1)c1ccc(-c2ccc(C(=O)O)o2)cc1` has an inhibition [1] of 20%.

`O=C(NCc1ccc(-c2ccccc2)cc1)c1ccc(-c2ccc(C(=O)O)o2)cc1` showed an inhibition [1] of 63%.

For `O=C(c1ccccc1)c1ccc(-c2ccc(-c3ccc(C(=O)O)o3)cc2)cc1`, the inhibition [1] was 63%.
